From ChEMBL document CHEMBL1201862, “PubChem BioAssay data set” (2004)
Blank lines part the entries; values can stand above or below the compound they belong to. Active and inactive are the calls of the source.

What was measured:
[1] = system: H9c2; assay: cells; type: functional, cell-based; conditions: Rattus norvegicus, H9c2, Myocardium;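 further: confirmatory concentration-response retest of ultra-high-throughput screening hits for modulation of myocardial damage; cell death induced by hydrogen peroxide oxidative stress; compound pretreatment for 60 min then peroxide exposure for 2 h; potency is for protecting the cells against peroxide damage rather than for killing them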
[2] = system: Escherichia coli; assay: microbe, parasite or virus in culture
[3] = biological target: Mu-type opioid receptor (Homo sapiens, UniProt P35372); assay: (§1) Counterscreen for agonists of heterodimerization of the mu 1 (OPRM1) and delta 1 (OPRD1) opioid receptors: Luminescence-based cell-based high throughput dose response assay to identify agonists of OPRM1 homodimerization.; type: functional
Sequence of Mu-type opioid receptor (P35372 whole entry): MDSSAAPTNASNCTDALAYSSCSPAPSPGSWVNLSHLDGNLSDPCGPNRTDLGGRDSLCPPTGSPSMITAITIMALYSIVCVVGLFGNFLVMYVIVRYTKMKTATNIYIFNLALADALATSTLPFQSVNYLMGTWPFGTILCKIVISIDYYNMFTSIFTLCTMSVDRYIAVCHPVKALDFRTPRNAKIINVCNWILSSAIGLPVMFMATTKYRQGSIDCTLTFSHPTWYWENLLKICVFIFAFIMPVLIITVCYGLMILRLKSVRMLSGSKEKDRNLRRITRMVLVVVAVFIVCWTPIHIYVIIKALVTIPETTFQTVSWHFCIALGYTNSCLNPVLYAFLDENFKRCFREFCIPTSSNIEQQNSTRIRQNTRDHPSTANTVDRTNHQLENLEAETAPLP

[4] = biological target: T1, Short transient receptor potential channel 4 (Mus musculus, UniProt Q9QUQ5); assay: calcium entry via TRPC4 opening agents – cell-based, HEK293 TRPC4/mu-opioid, Fluo-4 calcium, dose response (AID 434937); type: functional
T1 sequence (Q9QUQ5 whole entry): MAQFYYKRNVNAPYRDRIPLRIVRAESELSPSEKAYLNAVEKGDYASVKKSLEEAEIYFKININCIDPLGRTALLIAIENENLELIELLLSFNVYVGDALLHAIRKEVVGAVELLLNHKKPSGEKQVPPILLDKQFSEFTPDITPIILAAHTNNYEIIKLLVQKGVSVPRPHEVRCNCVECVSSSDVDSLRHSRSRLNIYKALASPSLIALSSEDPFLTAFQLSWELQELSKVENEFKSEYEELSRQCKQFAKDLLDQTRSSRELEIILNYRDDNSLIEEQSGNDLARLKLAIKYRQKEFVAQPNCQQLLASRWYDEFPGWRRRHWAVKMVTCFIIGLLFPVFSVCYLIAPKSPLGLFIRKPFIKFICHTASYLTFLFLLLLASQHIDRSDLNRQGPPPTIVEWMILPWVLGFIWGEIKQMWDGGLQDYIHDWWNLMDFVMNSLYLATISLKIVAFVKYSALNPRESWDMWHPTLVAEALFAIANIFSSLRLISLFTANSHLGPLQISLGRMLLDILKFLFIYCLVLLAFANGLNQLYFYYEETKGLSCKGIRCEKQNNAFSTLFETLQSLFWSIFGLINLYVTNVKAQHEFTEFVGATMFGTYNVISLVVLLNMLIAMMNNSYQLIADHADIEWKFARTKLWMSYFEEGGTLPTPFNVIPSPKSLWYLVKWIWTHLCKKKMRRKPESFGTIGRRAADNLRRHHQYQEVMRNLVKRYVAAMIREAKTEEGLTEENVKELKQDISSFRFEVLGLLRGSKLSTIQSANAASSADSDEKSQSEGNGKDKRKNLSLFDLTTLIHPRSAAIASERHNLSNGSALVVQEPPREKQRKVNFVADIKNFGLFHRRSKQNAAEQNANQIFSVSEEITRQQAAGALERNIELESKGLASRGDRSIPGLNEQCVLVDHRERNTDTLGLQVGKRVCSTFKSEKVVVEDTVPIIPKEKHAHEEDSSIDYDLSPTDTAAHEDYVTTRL

[5] = biological target: 5-hydroxytryptamine receptor 5A (Homo sapiens, UniProt P47898); assay: Counterscreen for agonists of OPRM1-OPRD1 heterodimerization: luminescence-based cell-based high throughput dose response assay to identify agonists of 5-hydroxytryptamine (serotonin) 5A receptor (HTR5A). [Related pubchem assays (depositor defined):AID504326, AID504355, AID504692, AID504904, AID504905]; type: functional
Sequence of 5-hydroxytryptamine receptor 5A (P47898 whole entry): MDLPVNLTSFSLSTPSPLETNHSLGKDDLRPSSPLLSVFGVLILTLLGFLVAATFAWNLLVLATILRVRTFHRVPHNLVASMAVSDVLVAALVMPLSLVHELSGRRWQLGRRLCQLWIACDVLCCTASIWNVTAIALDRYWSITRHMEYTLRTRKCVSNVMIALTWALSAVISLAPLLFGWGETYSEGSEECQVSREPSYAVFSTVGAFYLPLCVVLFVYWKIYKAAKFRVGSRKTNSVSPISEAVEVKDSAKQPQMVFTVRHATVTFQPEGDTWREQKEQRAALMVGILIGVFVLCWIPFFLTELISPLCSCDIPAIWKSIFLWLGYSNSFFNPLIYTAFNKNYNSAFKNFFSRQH

[6] = biological target: Delta-type opioid receptor (Homo sapiens, UniProt P41143); assay: as §1, with “of OPRD1” for “of OPRM1”, “homodimerization. [Related pubchem assays (depositor defined):AID504326, AID504355, AID504692, AID504904, AID504905]” for “homodimerization.”; type: functional
Sequence of Delta-type opioid receptor (P41143 whole entry, the tested form may be a part): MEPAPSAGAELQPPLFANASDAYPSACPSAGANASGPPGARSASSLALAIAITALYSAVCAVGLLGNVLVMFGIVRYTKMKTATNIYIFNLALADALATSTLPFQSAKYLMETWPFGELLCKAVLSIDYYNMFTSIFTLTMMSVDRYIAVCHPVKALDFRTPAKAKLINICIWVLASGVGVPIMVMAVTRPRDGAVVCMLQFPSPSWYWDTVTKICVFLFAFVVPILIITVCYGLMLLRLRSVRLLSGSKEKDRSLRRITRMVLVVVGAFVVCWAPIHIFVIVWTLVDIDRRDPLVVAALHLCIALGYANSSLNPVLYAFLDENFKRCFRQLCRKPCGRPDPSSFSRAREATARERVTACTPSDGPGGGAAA

[7] = biological target: Nucleotide-binding oligomerization domain-containing protein 2 (Homo sapiens, UniProt Q9HC29); assay: inhibition of NOD2-driven NF-kB reporter – cell-based, luminescence, uHTS, HEK293 (AID 1566); type: functional
Sequence of Nucleotide-binding oligomerization domain-containing protein 2 (Q9HC29 whole entry, the tested form may be a part): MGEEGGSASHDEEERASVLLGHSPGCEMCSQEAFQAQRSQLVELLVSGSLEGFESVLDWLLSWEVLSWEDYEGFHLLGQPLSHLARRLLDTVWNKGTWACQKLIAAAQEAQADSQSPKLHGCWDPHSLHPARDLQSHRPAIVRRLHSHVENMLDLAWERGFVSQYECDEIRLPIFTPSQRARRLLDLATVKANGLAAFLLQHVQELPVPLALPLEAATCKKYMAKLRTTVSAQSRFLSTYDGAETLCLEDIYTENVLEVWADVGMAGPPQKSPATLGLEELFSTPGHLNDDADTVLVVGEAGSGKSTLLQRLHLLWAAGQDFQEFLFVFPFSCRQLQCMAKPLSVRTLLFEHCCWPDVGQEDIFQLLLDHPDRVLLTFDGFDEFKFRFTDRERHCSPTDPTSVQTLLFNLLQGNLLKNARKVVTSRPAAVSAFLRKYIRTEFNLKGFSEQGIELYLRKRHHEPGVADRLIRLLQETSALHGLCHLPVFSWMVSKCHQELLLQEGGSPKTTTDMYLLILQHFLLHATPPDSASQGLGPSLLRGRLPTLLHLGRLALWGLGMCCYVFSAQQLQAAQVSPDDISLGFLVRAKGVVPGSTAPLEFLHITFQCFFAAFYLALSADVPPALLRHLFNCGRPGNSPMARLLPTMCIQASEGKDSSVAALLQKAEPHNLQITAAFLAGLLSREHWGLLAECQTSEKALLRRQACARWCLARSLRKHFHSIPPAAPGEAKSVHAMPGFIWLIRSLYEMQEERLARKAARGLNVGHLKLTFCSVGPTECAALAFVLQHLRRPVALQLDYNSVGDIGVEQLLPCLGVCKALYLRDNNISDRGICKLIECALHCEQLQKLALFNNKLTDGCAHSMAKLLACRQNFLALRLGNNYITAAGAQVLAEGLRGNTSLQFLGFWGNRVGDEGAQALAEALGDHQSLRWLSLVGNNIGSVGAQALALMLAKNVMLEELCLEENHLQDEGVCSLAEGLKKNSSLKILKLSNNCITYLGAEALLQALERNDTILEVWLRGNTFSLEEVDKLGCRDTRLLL

[8] = system: HEK293; assay: cells; conditions: Homo sapiens
[9] = system: HEK293; assay: cells; type: functional, cell-based; conditions: Homo sapiens
[10] = system: HEK293; assay: cells; type: functional, cell-based; conditions: Homo sapiens; remark: listed apart in the source
[11] = system: HEK293; assay: NOD2 signaling inhibitors in MDP-stimulated cells, cell-based, uHTS, luminescence (AID 2001); type: functional; conditions: Homo sapiens
[12] = biological target: Tumor necrosis factor (Homo sapiens, UniProt P01375); assay: analog potency on TNFa NF-kB signaling – cell-based, revised, SAR follow-up (AID 2337); type: functional
Sequence of Tumor necrosis factor (P01375 whole entry): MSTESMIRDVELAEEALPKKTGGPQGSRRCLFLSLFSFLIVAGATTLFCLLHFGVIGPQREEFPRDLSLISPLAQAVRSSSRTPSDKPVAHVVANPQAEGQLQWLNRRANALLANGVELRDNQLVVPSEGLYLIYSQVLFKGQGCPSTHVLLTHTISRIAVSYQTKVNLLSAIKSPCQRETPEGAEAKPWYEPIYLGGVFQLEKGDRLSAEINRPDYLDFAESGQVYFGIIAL

[13] = system: HEK293; assay: cells; type: functional, cell-based; conditions: Homo sapiens; remark: listed apart in the source
[14] = system: HEK293; assay: inhibition of NOD1-driven NF-kB reporter – cell-based, luminescence, uHTS, primary screen (AID 1578); type: functional; conditions: Homo sapiens
[15] = biological target: Nucleotide-binding oligomerization domain-containing protein 1 (Homo sapiens, UniProt Q9Y239); assay: blockers of NOD1 pathway activity – revised, SAR follow-up (AID 2333); type: functional
Sequence of Nucleotide-binding oligomerization domain-containing protein 1 (Q9Y239 whole entry, the tested form may be a part): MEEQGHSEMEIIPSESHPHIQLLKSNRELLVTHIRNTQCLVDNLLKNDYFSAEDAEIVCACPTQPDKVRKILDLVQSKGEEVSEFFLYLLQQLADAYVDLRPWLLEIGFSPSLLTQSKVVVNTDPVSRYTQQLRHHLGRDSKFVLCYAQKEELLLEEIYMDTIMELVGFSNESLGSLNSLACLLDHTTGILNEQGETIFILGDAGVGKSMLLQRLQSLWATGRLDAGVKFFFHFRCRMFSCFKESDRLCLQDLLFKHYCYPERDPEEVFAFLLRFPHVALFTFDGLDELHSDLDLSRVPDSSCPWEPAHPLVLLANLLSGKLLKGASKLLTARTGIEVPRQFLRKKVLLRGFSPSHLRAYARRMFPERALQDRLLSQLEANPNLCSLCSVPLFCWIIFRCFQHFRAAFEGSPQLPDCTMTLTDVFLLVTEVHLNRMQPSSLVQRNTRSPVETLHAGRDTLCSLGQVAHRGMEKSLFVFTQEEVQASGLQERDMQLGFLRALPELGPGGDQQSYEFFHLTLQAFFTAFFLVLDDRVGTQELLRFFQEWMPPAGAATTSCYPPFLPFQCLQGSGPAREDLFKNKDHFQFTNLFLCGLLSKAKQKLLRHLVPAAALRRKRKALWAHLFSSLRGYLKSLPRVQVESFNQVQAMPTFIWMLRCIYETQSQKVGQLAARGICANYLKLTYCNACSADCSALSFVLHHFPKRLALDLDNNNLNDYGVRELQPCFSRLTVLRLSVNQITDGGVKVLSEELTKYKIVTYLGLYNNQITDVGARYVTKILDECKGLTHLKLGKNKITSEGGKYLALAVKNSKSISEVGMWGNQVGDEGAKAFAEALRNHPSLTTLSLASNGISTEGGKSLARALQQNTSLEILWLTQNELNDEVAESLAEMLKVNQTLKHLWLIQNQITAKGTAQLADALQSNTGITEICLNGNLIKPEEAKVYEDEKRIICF

[16] = biological target: Trypsin (Sus scrofa, UniProt P00761); assay: trypsin protease activity blockade – biochemical, quenched peptide fluorescence, cherry-pick, selectivity assay for Rce1 protease inhibitor project, dose response (AID 488789)
Sequence of Trypsin (P00761 whole entry): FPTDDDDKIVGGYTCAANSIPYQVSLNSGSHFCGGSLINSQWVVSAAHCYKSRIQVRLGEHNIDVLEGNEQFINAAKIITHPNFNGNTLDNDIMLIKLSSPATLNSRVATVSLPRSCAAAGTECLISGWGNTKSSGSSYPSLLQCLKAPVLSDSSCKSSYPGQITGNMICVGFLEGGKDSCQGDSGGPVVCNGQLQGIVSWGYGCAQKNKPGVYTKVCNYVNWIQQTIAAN

[17] = biological target: T2, CAAX prenyl protease 2 (Saccharomyces cerevisiae S288c, UniProt Q03530); type: biochemical
T2 sequence (Q03530 whole entry): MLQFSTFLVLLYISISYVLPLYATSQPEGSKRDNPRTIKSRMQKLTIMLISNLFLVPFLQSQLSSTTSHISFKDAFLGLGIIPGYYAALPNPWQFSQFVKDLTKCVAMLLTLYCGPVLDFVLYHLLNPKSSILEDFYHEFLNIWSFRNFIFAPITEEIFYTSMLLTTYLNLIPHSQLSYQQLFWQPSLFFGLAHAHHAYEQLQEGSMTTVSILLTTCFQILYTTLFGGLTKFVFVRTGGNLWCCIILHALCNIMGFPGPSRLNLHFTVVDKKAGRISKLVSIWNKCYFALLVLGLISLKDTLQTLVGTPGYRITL

[18] = biological target: CAAX prenyl protease 2 (Homo sapiens, UniProt Q9Y256); assay: inhibition of Ras-converting CAAX protease Rce1 – biochemical, yeast membranes, quenched-peptide fluorescence, cherry-pick, dose response (AID 588849)
Sequence of CAAX prenyl protease 2 (Homo sapiens, UniProt Q9Y256) (Q9Y256 whole entry): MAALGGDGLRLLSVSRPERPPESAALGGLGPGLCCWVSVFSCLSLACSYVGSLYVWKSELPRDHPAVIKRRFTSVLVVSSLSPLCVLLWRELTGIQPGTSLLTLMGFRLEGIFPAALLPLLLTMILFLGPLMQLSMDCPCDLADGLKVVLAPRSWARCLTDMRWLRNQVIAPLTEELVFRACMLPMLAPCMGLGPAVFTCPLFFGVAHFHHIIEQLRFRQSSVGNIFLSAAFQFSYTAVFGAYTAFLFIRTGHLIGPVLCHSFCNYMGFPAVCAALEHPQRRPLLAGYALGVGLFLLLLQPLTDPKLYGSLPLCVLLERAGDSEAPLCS

[19] = MIN6 cell viability loss – mouse insulinoma, cytotoxicity control, dose response (AID 2122); type: functional;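 further: confirmatory high-throughput counterscreen run to flag cytotoxic compounds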
[20] = non-specific 3'UTR reporter inhibition in Clone20-Shn3RL – cell-based, Renilla luciferase, cherry-picked, counter-screen for Shn3 inhibitor project, dose response (AID 624133); type: functional
[21] = loss of viability in HepG2 cells – cell-based, CellTiter-Glo, cherry-picked, cytotoxicity control for Shn3 inhibitor project, dose response (AID 624134); type: functional
[22] = decrease of insulin promoter-GFP reporter – imaging, high-content screening, mouse beta cells (AID 1628); type: functional; conditions: MIN6
[23] = reduction of Shn3 3'UTR-driven luciferase in osteoblasts – cell-based, Clone20 osteoblasts, firefly luciferase, cherry-picked, dose response (AID 624132); type: functional;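 further: firefly luciferase luminescence from reporter carrying the Shn3 3'UTR in osteoblasts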

SMILES: COc1cccc(-c2nn3c(-c4ccccn4)nnc3s2)c1
IC50 [1]: 16.5 µM (active)
AC50 [2]: 192 µM (active)

EC50 [3]: 12.5 µM (inactive)
EC50 [4]: 0.0427 µM (active)
EC50 [5]: > 92.5 µM (inactive)
EC50 [6]: 74.6 µM (inactive)
SMILES: Cc1ccccc1NC(S)=NCC(c1cccnc1)N(C)C (stereo not drawn)

SMILES: Cc1onc(-c2ccccc2)c1C(=O)Nc1ncc([N+](=O)[O-])s1
EC50 [7]: 2.62 µM (active)
IC50 [8]: 18 µM (active)
IC50 [9]: > 20 µM (inactive)
IC50 [10]: 15.8 µM (active)
IC50 [11]: 8.73 µM (active)
IC50 [12]: 6.31 µM (active)
IC50 [13]: > 20 µM (inactive)
EC50 [14]: 2.25 µM (active)
IC50 [15]: 4.88 µM (active)

AC50 [16]: 0.989 µM (active)
AC50 [17]: 4.28 µM (active)
AC50 [18]: 0.769 µM (active)
SMILES: CN1c2ccccc2-c2nc3ccccc3n2C1c1cccs1 (stereo not drawn)

SMILES: Cc1cc2nc(C)n(CCCNC(=O)Nc3cccc4ccccc34)c2cc1C
IC50 [19]: 1.99 µM (active)
AC50 [20]: 6.38 µM (active)
AC50 [21]: 28.5 µM (active)
IC50 [22]: 1.7 µM (active)
AC50 [23]: 3.19 µM (active)
